Test results reported in US20190038689A1, “TOPICAL SKIN COMPOSITIONS FOR TREATING ERYTHEMA OR SKIN INFLAMMATION” (MARY KAY INC., priority 2017, published 2019).

Tested on: Nitric oxide synthases (NOS)
Assay: Nitric Oxide Synthase Activity Assay (NO product measured as nitrite, improved Griess method)
Type: biochemical
Conditions: for Nitric Oxide Synthase Activity: negative = reduction
Procedure: Nitric Oxide Synthase Activity Assay:
Nitric oxide synthases (NOS) are a family of enzymes catalyzing the production of nitric oxide (NO) from L-arginine. NOS is an important mediator of vasodilation in blood vessels. This bioassay was used to analyze the effect of saccharide isomerate extract, Myrothamnus flabellifolia extract, [6]-paradol, and a combination of algae extract and mugwort (Artemisia vulgaris) extract on the activity of NOS. The bioassay is performed in the presence or absence of the test compound, test extract, or positive control during production of NO by NOS. To measure the activity of NOS, the NO product is allowed to oxidize to nitrite and nitrate and then the nitrate is reduced to nitrite and measured using an improved Griess method. It was shown that saccharide isomerate extract, Myrothamnus flabellifolia extract, [6]-paradol, and a combination of algae extract and mugwort (Artemisia vulgaris) extract reduced the activity of NOS greater than the 1 μM SIN-1 positive control.

SMILES: [NH-]c1c[n+](N2CCOCC2)no1 [SIN-1]
- activity of NOS was reduced by (1 μM positive control): approximately 29%
- Nitric Oxide Synthase Activity (1 μM, positive control): −28.7%

SMILES: CCCCCCCC(=O)CCc1ccc(O)c(OC)c1 [SYMRELIEF ® S, 1-(4-hydroxy-3-methoxyphenyl)decan-3-one]
- Nitric Oxide Synthase Activity (1% ingredient): −46.617%
- activity of NOS was reduced by (rounded values of Table 2 (1% ingredient)): ~47%
